These results are taken from US20130096156A1 (priority 2010, published 2013).

Read-outs that look alike come from different tables or passages of the source.

The subject of series [1] is Pythium ultimum. Briefly: Pythium ultimum / liquid culture (seedling damping off). It counts as cell-based. The note with it: Globisporangium ultimum, liquid culture in PDB, 24° C., 2-3 days after application, read-out: inhibit fungal infestation (inhibition of growth determined photometrically). The method, then:
Mycelia fragments or conidia suspensions of a fungus, prepared either freshly from liquid cultures of the fungus or from cryogenic storage, are directly mixed into nutrient broth. DMSO solutions of the test compound (max. 10 mg/ml) is diluted with 0.025% Tween20 by factor 50 and 10 μl of this solution is pipetted into a microtiter plate (96-well format) and the nutrient broth containing the fungal spores/mycelia fragments is then added to give an end concentration of the tested compound. The test plates are incubated at 24° C. and 96% rH in the dark. The inhibition of fungal growth is determined photometrically after 2-6 days and antifungal activity is calculated.
Mycelia fragments and oospores of a newly grown liquid culture of the fungus are directly mixed into nutrient broth (PDB potato dextrose broth). After placing a (DMSO) solution of test compound into a microtiter plate (96-well format), the nutrient broth containing the fungal mycelia/spore mixture is added. The test plates are incubated at 24° C. and the inhibition of growth is determined photometrically 2-3 days after application.

The test system of series [2] is Blumeria graminis f. sp. tritici (Erysiphe graminis f. sp. tritici). Briefly: Blumeria graminis f. sp. tritici / wheat / leaf disc preventative (powdery mildew on wheat). The settings on record: foliar, wheat leaf segments cv. Kanzler, inoculated 1 day after application, assessed 6-8 days after application, read-out: inhibit fungal infestation (percent disease control compared to untreated). It counts as in vivo. As to the method: (§1) Leaf disks of various plant species (diameter 14 mm) are cut from plants grown in the greenhouse. The cut leaf disks are placed in multiwell plates (24-well format) onto water agar. Immediately after cutting the leaf disks are sprayed with a test solution.
(§2) Compounds to be tested are prepared as DMSO solutions (max. 10 mg/ml). Just before spraying the solutions are diluted to the appropriate concentrations with 0.025% Tween20. After drying, the leaf disks are inoculated with a spore suspension of the appropriate pathogenic fungus.
(§3) After an incubation time of 3-7 days after inoculation at defined conditions (temp, rH, light, etc.) according to the respective test system, the activity of the test compound is assessed as antifungal activity.
Wheat leaf segments cv. Kanzler are placed on agar in a multiwell plate (24-well format) and sprayed with the formulated test compound diluted in water. The leaf disks are inoculated by shaking powdery mildew infected plants above the test plates 1 day after application. The inoculated leaf disks are incubated at 20° C. and 60% rh under a light regime of 24 h darkness followed by 12 h light/12 h darkness in a climate chamber and the activity of a compound is assessed as percent disease control compared to untreated when an appropriate level of disease damage appears on untreated check leaf segments (6-8 days after application).

Series [3] deals with Phytophthora infestans. The series can be described thus: whole plant or invertebrate. Type of series: in vivo. The note with it: in Solanum lycopersicum, foliar, read-out: inhibit fungal infestation (percent disease control compared to untreated).
For series [4], the system named is Plasmopara viticola. The series can be described thus: Plasmopara viticola / grape / leaf disc preventative. It counts as in vivo. The note with it: foliar, grape vine leaf disks, inoculated 1 day after application, assessed 6-8 days after application, read-out: inhibit fungal infestation (percent disease control compared to untreated). As to the method:
as §1, §2, §3
Grape vine leaf disks are placed on water agar in multiwell plates (24-well format) and sprayed with the formulated test compound diluted in water. The leaf disks are inoculated with a spore suspension of the fungus 1 day after application. The inoculated leaf disks are incubated at 19° C. and 80% rh under a light regime of 12 h light/12 h darkness in a climate cabinet and the activity of a compound is assessed as percent disease control compared to untreated when an appropriate level of disease damage appears in untreated check leaf disks (6-8 days after application).

The test system of series [5] is Phaeosphaeria nodorum (Septoria nodorum). The series can be described thus: Phaeosphaeria nodorum (Septoria nodorum) / wheat / leaf disc preventative (glume blotch). The note with it: Parastagonospora nodorum, foliar, wheat leaf segments cv. Kanzler, inoculated 2 days after application, assessed 5-7 days after application, read-out: inhibit fungal infestation (percent disease control compared to untreated). Type of series: in vivo. The method, then:
as §1, §2, §3
Wheat leaf segments cv. Kanzler are placed on agar in a multiwell plate (24-well format) and sprayed with the formulated test compound diluted in water. The leaf disks are inoculated with a spore suspension of the fungus 2 days after application. The inoculated test leaf disks are incubated at 20° C. and 75% rh under a light regime of 12 h light/12 h darkness in a climate cabinet and the activity of a compound is assessed as percent disease control compared to untreated when an appropriate level of disease damage appears in untreated check leaf disks (5-7 days after application).

For `COCC#CC(C)(C)NC(=O)C(Oc1cc(C)c2ncc(C)cc2c1)SC` (stereo not shown) [Compound 7, 2-(3,8-Dimethyl-quinolin-6-yloxy)-N-(4-methoxy-1,1-dimethyl-but-2-ynyl)-2-methylsulfanyl-acetamide], the melting point – broadly, the temperature of the solid-liquid transition – is 124 to 126 °C. Besides, in series [1], the inhibition at 200 ppm was ≥ 80%. For the same compound, in series [2], the inhibition at 200 ppm is ≥ 80%. Moreover, in series [3], the inhibition at 200 ppm is ≥ 80%. Besides, in series [4], the inhibition at 200 ppm was ≥ 80%.
Take `CC#CC(C)(C)NC(=O)C(Oc1cc(F)c2ncc(CC)cc2c1)SC` (stereo not shown) [Compound 15, N-(1,1-Dimethyl-but-2-ynyl)-2-(3-ethyl-8-fluoro-quinolin-6-yloxy)-2-methylsulfanyl-acetamide]: the melting point fell in the range of 151 to 153 °C. In addition, the inhibition at 200 ppm in series [1] was ≥ 80%. In series [2], the inhibition at 200 ppm was ≥ 80%. The inhibition at 200 ppm in series [3] was ≥ 80%. Also, the inhibition at 200 ppm in series [4] was ≥ 80%.
The compound `CC#CC(C)(C)NC(=O)C(Oc1ccc2ncc(C)cc2c1)SC` (stereo not shown) [Compound 3, N-(1,1-Dimethyl-but-2-ynyl)-2-(3-methyl-quinolin-6-yloxy)-2-methylsulfanyl-acetamide] displayed a melting point of 128 to 129 °C. For the same compound, in series [1], the inhibition at 200 ppm is ≥ 80%. The inhibition at 200 ppm in series [2] was ≥ 80%. Besides, the inhibition at 200 ppm in series [3] was ≥ 80%. Besides, the inhibition at 200 ppm in series [4] was ≥ 80%.
Compound `CSC(Oc1cc(C)c2ncc(C)cc2c1)C(=O)NC(C)(C)C` (stereo not shown) [Compound 6, N-tert-Butyl-2-(3,8-dimethyl-quinolin-6-yloxy)-2-methylsulfanyl-acetamide] displayed a melting point of 126 to 127 °C. Moreover, the inhibition at 200 ppm in series [1] was ≥ 80%. In series [2], the inhibition at 200 ppm was ≥ 80%. For the same compound, the inhibition at 200 ppm in series [3] is ≥ 80%. Moreover, the inhibition at 200 ppm in series [4] was ≥ 80%.
In turn, `CCc1cnc2c(F)cc(OC(SC)C(=O)NC(C)(C)/C=N/OC)cc2c1` (stereo not shown) [Compound 14, 2-(3-Ethyl-8-fluoro-quinolin-6-yloxy)-N-(2-methoxyimino-1,1-dimethyl-ethyl)-2-methylsulfanyl-acetamide] gave a melting point of 101 to 103 °C. In addition, the inhibition at 200 ppm in series [1] is ≥ 80%. Further, the inhibition at 200 ppm in series [2] was ≥ 80%. Also, in series [3], the inhibition at 200 ppm was ≥ 80%. In series [4], the inhibition at 200 ppm is ≥ 80%. Moreover, in series [5], the inhibition at 200 ppm is ≥ 80%.
`C#CC(C)(C)NC(=O)C(Oc1cc(C)c2ncc(C=C)cc2c1)SC` (stereo not shown) [Compound 36, N-(1,1-Dimethyl-prop-2-ynyl)-2-methylsulfanyl-2-(8-methyl-3-vinyl-quinolin-6-yloxy)-acetamide] had a melting point of 115 to 117 °C. Also, the inhibition at 200 ppm in series [1] is ≥ 80%. Moreover, in series [2], the inhibition at 200 ppm was ≥ 80%. For the same compound, in series [3], the inhibition at 200 ppm was ≥ 80%. The inhibition at 200 ppm in series [4] is ≥ 80%. Moreover, the inhibition at 200 ppm in series [5] was ≥ 80%.
In turn, `CC#CC(C)(C)NC(=O)C(Oc1ccc2ncc(CC)cc2c1)SC` (stereo not shown) [Compound 13, N-(1,1-Dimethyl-but-2-ynyl)-2-(3-ethyl-quinolin-6-yloxy)-2-methylsulfanyl-acetamide] had a melting point of 133 to 134 °C. Further, the inhibition at 200 ppm in series [1] was ≥ 80%. The inhibition at 200 ppm in series [2] was ≥ 80%. Further, the inhibition at 200 ppm in series [3] is ≥ 80%. Also, in series [4], the inhibition at 200 ppm is ≥ 80%.
`C#CC(C)(C)NC(=O)C(Oc1cc(Cl)c2ncc(CC)cc2c1)SC` (stereo not shown) [Compound 25, 2-(8-Chloro-3-ethyl-quinolin-6-yloxy)-N-(1,1-dimethyl-prop-2-ynyl)-2-methylsulfanyl-acetamide] displayed a melting point of 149 to 151 °C. Moreover, the inhibition at 200 ppm in series [3] was ≥ 80%. For the same compound, the inhibition at 200 ppm in series [4] was ≥ 80%. The inhibition at 200 ppm in series [5] is ≥ 80%.
`CCc1cnc2c(C)cc(OC(SC)C(=O)NC(C)(C)/C=N/OC)cc2c1` (stereo not shown) [Compound 16, 2-(3-Ethyl-8-methyl-quinolin-6-yloxy)-N-(2-methoxyimino-1,1-dimethyl-ethyl)-2-methylsulfanyl-acetamide] came in with a melting point of 105 to 106 °C. The inhibition at 200 ppm in series [1] is ≥ 80%. Further, the inhibition at 200 ppm in series [2] is ≥ 80%. In addition, in series [3], the inhibition at 200 ppm was ≥ 80%. Besides, the inhibition at 200 ppm in series [4] is ≥ 80%. The inhibition at 200 ppm in series [5] was ≥ 80%.
As to `C=Cc1cnc2c(F)cc(OC(SC)C(=O)NC(C)(C)/C=N/OC)cc2c1` (stereo not shown) [Compound 37], the melting point is 105 to 107 °C. Also, in series [1], the inhibition at 200 ppm was ≥ 80%. Besides, the inhibition at 200 ppm in series [2] (in Triticum aestivum) is ≥ 80%. Further, the inhibition at 200 ppm in series [3] is ≥ 80%. For the same compound, in series [4], the inhibition at 200 ppm is ≥ 80%. In series [5] (in Triticum aestivum), the inhibition at 200 ppm is ≥ 80%.
Compound `CCc1cnc2c(Cl)cc(OC(SC)C(=O)NC(C)(C)/C=N/OC)cc2c1` (stereo not shown) [Compound 24, 2-(8-Chloro-3-ethyl-quinolin-6-yloxy)-N-(2-methoxyimino-1,1-dimethyl-ethyl)-2-methylsulfanyl-acetamide] yielded a melting point of 142 to 144 °C. Besides, the inhibition at 200 ppm in series [1] was ≥ 80%. Further, in series [2], the inhibition at 200 ppm was ≥ 80%. In addition, in series [3], the inhibition at 200 ppm is ≥ 80%. Further, in series [4], the inhibition at 200 ppm is ≥ 80%.
Compound `C#CC(C)(COC)NC(=O)C(Oc1cc(C)c2ncc(C)cc2c1)SC` (stereo not shown) [Compound 10, 2-(3,8-Dimethyl-quinolin-6-yloxy)-N-(1-methoxymethyl-1-methyl-prop-2-ynyl)-2-methylsulfanyl-acetamide] showed a melting point of 119 to 120 °C. In series [1], the inhibition at 200 ppm is ≥ 80%. In addition, in series [2], the inhibition at 200 ppm was ≥ 80%. In addition, the inhibition at 200 ppm in series [3] is ≥ 80%. In addition, in series [5], the inhibition at 200 ppm was ≥ 80%.
For the compound `CO/N=C/C(C)(C)NC(=O)C(Oc1ccc2ncc(C)cc2c1)SC` (stereo not shown) [Compound 12, N-(2-Methoxyimino-1,1-dimethyl-ethyl)-2-(3-methyl-quinolin-6-yloxy)-2-methylsulfanyl-acetamide], the melting point fell in the range of 130 to 132 °C. Moreover, the inhibition at 200 ppm in series [1] was ≥ 80%. The inhibition at 200 ppm in series [2] is ≥ 80%. Also, the inhibition at 200 ppm in series [3] is ≥ 80%. For the same compound, the inhibition at 200 ppm in series [4] was ≥ 80%.
On to `C#CC(C)(C)NC(=O)C(Oc1ccc2ncc(C=C)cc2c1)SC` (stereo not shown) [Compound 33, N-(1,1-Dimethyl-prop-2-ynyl)-2-methylsulfanyl-2-(3-vinyl-quinolin-6-yloxy)-acetamide], for which the melting point was 142 to 144 °C. Besides, the inhibition at 200 ppm in series [1] is ≥ 80%. Moreover, the inhibition at 200 ppm in series [2] is ≥ 80%. Moreover, in series [3], the inhibition at 200 ppm is ≥ 80%. Also, the inhibition at 200 ppm in series [4] is ≥ 80%. Besides, the inhibition at 200 ppm in series [5] was ≥ 80%.
In the case of `C#CC(C)(C)NC(=O)C(Oc1ccc2ncc(C)cc2c1)SC` (stereo not shown) [Compound 2, N-(1,1-Dimethyl-prop-2-ynyl)-2-(3-methyl-quinolin-6-yloxy)-2-methylsulfanyl-acetamide], the melting point lay within 132 to 134 °C. Besides, the inhibition at 200 ppm in series [1] was ≥ 80%. Besides, in series [2], the inhibition at 200 ppm is ≥ 80%. Besides, in series [3], the inhibition at 200 ppm is ≥ 80%. The inhibition at 200 ppm in series [4] is ≥ 80%.
